{"source": "patent EP0091090A2", "about": "“Bipyridine substituted imidazolidene copper complex and its use in food-producing animals, and bipyridine, 2,2'-(2-imidazolidinylidene) di-copper complex and use in animals” (INTERNATIONAL MINERALS & CHEMICAL CORPORATION, priority 1982, dated 1983)", "key": {"[1]": {"system": "rumen fluid batch culture", "assay": "Rumen fluid batch culture test: volatile fatty acid, gas (CH4 + H2), protein and amino acid accumulation (Example 2)", "assay_type": "cell-based, steers", "method": "The above Formula IV composition was tested to determine its effectiveness as a feed additive for ruminants. The initial tests were in rumen fluid batch culture systems to determine the effect of the compound on volatile fatty acid/methane ratios (VFA/CH4). […] Test Procedure: A 50/50 mixture of ground corn and ground alfalfa was used as the substrate for the subject rumen fluid batch culture test. The compound (Formula IV ) was present in the rumen fluid in three separate test samples at 8.33, 25 and 75 ppm, respectively. On day 1, rumen fluid was obtained from mature fistulated steers on 50/50 concentrate/roughage diets. The rumen fluid (RF) was strained through three layers of gauze cloth and equilibrated with C02 gas. Wheaton serum vials (125 ml) were prepared ahead with 20 ml continuous batch buffer and 100 mg 50/50 ground corn/ground alfalfa. Controls and compounds (dissolved in acetone) were set up according to desired levels. The vials were kept under C02 gas until 20 ml of the strained RF was added. The vials were sealed and incubated at 39°C for 24 hours in a hot water bath. On successive days, gas samples (0.1 ml) were drawn for gas chromatography analysis before transferring 20 ml of the batch culture to another vial containing 20 ml of buffer, 100 mg substrate, and the corresponding compound. The remaining 20 ml was inoculated with 2 ml 6N HC1 and centrifuged at 15,000 rpm for 15 minutes. Ether extracts were prepared for volatile fatty acid (VFA) analysis. Some minor adjustments were made in the termperatures on the Hewlett-Packard 5750 Gas-Liquid Chromatograph used for VFA analysis when the glass column used was changed from 1/4 inch diameter to 1/8 inch diameter. Injection Port = 220°C Column Oven = 170°C Flame Detector = 250°C Only 4 minutes was needed to record the sample instead of the previous 7 minutes."}, "[2]": {"system": "rumen fluid batch culture", "assay": "Batch rumen VFA and gas production screen (Example 8)", "assay_type": "cell-based, steers", "method": "The above Formula II composition was tested to determine its effectiveness as a feed additive for ruminants. The initial tests were in rumen fluid batch culture systems to determine the effect of the compound on volatile fatty acid/methane ratios (VFA/CH4).\nA 50/50.mixture of ground corn and ground alfalfa was used as the substrate for the subject rumen fluid batch culture test. The compound (Formula II) was present in the rumen fluid at 75 ppm.\nOn day 1, rumen fluid was obtained from mature fistulated steers on 50/50 concentrate/roughage diets. The rumen fluid (RF) was strained through three layers of gauze cloth and equilibrated with C02 gas. Wheaton serum vials (125 ml) were prepared ahead with 20 ml continuous batch buffer and 100 mg 50/50 ground corn/ground alfalfa. Controls and compounds (dissolved in acetone) were set up according to indicated levels. The vials were kept under C02 gas until 20 ml of the strained RF was added. The vials were sealed and incubated at 39°C for 24 hours in a hot water bath. On successive days, gas samples (0.1 ml) were drawn for gas chromatography analysis before transferring 20 ml of the batch culture to another vial containing 20 ml of buffer, 100 mg substrate, and the corresponding compound. The remaining 20 ml was inoculated with 2 ml 6N HCl and centrifuged at 15,000 rpm for 15 minutes. Ether extracts were prepared for volatile fatty acid (VFA) analysis. Some minor adjustments were made in the temperatures on the Hewlett-Packard 5750 Gas-Liquid Chromatograph used for VFA analysis when the glass column used was changed from 1/2 inch diameter to 1J8 inch diameter.\nAbout 4 minutes was needed to record the sample.\nIn the above tests, four control groups were run and the mean established."}, "rumen microflora": {"system": "rumen microflora", "assay": "Batch culture assay for the degradation of starch (Example 3)", "assay_type": "cell-based, steers", "text": "The subject Formula ^IV compound was also compared to monensin in another rumen fluid batch culture test as set forth below. The test was designed to screen compounds for inhibition of starch breakdown by the rumen microflora. […] It is considered more desirable to avoid degradation of starch in the rumen so that it is passed on into the abomasum where it can be digested more efficiently. […] Test Procedure: Animals - Mature fistulated steers were maintained on concentrate, roughage, or concentrate/ roughage (50/50) rations. Animals were fed twice daily at 8:00 A.M. and 4:00 P.M.\nCulture Assays - Approximately two liters of rumen fluid were collected from fistulated animals with the use of a hand pump. The rumen fluid, collected in a stoppered flask, was then immediately taken to the laboratory for processing. Samples were taken at 8:00 A.M. just prior to the first feeding or at 1:00 P.M. (ca. 4-5 hours after the first feeding). Rumen fluid was strained through six layers of cotton gauze cloth into a flask that was flushed with C02 gas. The filtrate was centrifuged for 5 minutes at 100 rpm in a Sorvall centrifuge to remove large particulate material. The supernatant was again passed through six layers of gauze into a flask under C02 gas and stoppered.\nBatch Culture Assay for the Degradation of Starch - Twenty-five ml of rumen fluid prepared as above was added to serum vials (Wheaton Glass, 100 ml capacity) containing 0.25-1.00% final concentration starch as an energy substrate in 25 ml batch culture assay buffer. The serum vials were sealed under C02 gas phase, and incubations were carried out for 20-24 hours at 39°C on a New Brunswick rotary shaker (250 rpm). Each experimental vial was done in triplicate. The corn starch used in degradation experiments was previously washed with distilled water several times, filtered through an 8 micron (47 mm) Millipore filter, and dried at 90°C for 24 hours.\nAt intervals of 0 and 24 hours, the entire contents in vials were centrifuged at 250 rpm for 5 minutes. The supernatants were carefully removed with a pipet and the remaining \"starch pellets\" resuspended in water and passed through borosilicate glass microfiber prefilters (Millipore AP 20-047-00). Filters were dried in an oven for 24 hours at 90°C, cooled and then weighed. The amount of starch remaining after 24 hours' incubation was compared with the amount present at 0 hours and the per cent of substrate degraded calculated."}, "[3]": {"assay": "Chick rye diet test system (Example 6)", "assay_type": "in vivo", "conditions": "compared to positive control (penicillin or bacitracin)", "text": "The Formula III compound can be tested in a chick rye diet test system. […] Useful antibiotics for the positive control comparison are penicillin or bacitracin."}, "[4]": {"conditions": "75 ppm, single runs of duplicate"}}, "note": "“And” between values parts separate entries of the source, which are not always exact repeats. Equal values may be shown once. Read-outs that look alike come from different tables or passages of the source."}
{"molecule": "CC[C@@]1([C@@H]2O[C@@H]([C@H]3O[C@@](O)(CO)[C@H](C)C[C@@H]3C)C[C@@H]2C)CC[C@H]([C@]2(C)CC[C@]3(C[C@H](O)[C@@H](C)[C@@H]([C@@H](C)[C@@H](OC)[C@H](C)C(=O)O)O3)O2)O1", "note": "[Monensin, reference compound]", "values": [{"measurement": "AA", "setting": "[1]", "value": "0.51 µmol/mL and 0.28 µmol/mL and 0.29 µmol/mL and 0.34 µmol/mL and 0.30 µmol/mL and 0.44 µmol/mL"}, {"measurement": "CH4 produced on Day 10", "setting": "[1]", "value": 49}, {"measurement": "Caloric Value of CH4", "setting": "[1]", "value": 10.33}, {"measurement": "Caloric Value of H2", "setting": "[1]", "value": 0}, {"measurement": "Caloric Value of HAc", "setting": "[1]", "value": 105.04}, {"measurement": "Caloric Value of HBu", "setting": "[1]", "value": 50.34}, {"measurement": "Caloric Value of HFo", "setting": "[1]", "value": 0.98}, {"measurement": "Caloric Value of HPr", "setting": "[1]", "value": 180.46}, {"measurement": "Caloric Value of HiBu", "setting": "[1]", "value": 5.11}, {"measurement": "Caloric Value of HiVal", "setting": "[1]", "value": 2.17}, {"measurement": "Caloric Value, Total (VFA's)", "setting": "[1]", "value": 344.10}, {"measurement": "Gross Cal Remaining in Feed", "setting": "[1]", "value": 364.76, "unit": "cal"}, {"measurement": "H2", "setting": "[1]", "value": 0, "unit": "µ Moles"}, {"measurement": "H2 produced on Day 10", "setting": "[1]", "value": 0}, {"measurement": "HAc (acetate) produced on Day 10", "setting": "[1]", "value": 501.6}, {"measurement": "HBu (butyrate) produced on Day 10", "setting": "[1]", "value": 96.8}, {"measurement": "HFo (formate) produced on Day 10", "setting": "[1]", "value": 15.60}, {"measurement": "HPr (propionate) produced on Day 10", "setting": "[1]", "value": 494.4}, {"measurement": "HiBu (isobutyrate) produced on Day 10", "setting": "[1]", "value": 14.0}, {"measurement": "HiVal (isovalerate) produced on Day 10", "setting": "[1]", "value": 3.2}, {"measurement": "Total VFA's produced on Day 10", "setting": "[1]", "value": "1,125.6"}, {"measurement": "Acetate", "setting": "[2]", "value": "7.2 Mu Moles/ml and 5.6 Mu Moles/ml"}, {"measurement": "Acetate, Mean", "setting": "[2]", "value": 6.4, "unit": "Mu Moles/ml"}, {"measurement": "Butyrate", "setting": "[2]", "value": "7.8 Mu Moles/ml and 7.9 Mu Moles/ml"}, {"measurement": "Butyrate, Mean", "setting": "[2]", "value": 7.6, "unit": "Mu Moles/ml"}, {"measurement": "CH4 (%)", "setting": "[2]", "value": "5.6% and 6.2%"}, {"measurement": "CH4 (%), Average", "setting": "[2]", "value": 5.8, "unit": "%"}, {"measurement": "CH4, Percent Change", "setting": "[2]", "value": -49.4, "unit": "%"}, {"measurement": "H2 (%)", "setting": "[2]", "value": 0.0, "unit": "%"}, {"measurement": "H2 (%), Average", "setting": "[2]", "value": 0.0, "unit": "%"}, {"measurement": "Propionic", "setting": "[2]", "value": "20.7 Mu Moles/ml and 18.7 Mu Moles/ml"}, {"measurement": "Propionic, Mean", "setting": "[2]", "value": 19.7, "unit": "Mu Moles/ml"}, {"measurement": "Total", "setting": "[2]", "value": 32.2, "unit": "Mu Moles/ml"}, {"measurement": "Total, Mean", "setting": "[2]", "value": 38.8, "unit": "Mu Moles/ml"}, {"measurement": "effect on starch fermentation", "setting": "rumen microflora", "value": "neither monensin or lasalocid had any effect"}]}
{"molecule": "CC[C@@H](C(=O)[C@@H](C)[C@@H](O)[C@H](C)CCc1ccc(C)c(O)c1C(=O)O)[C@H]1O[C@](CC)([C@H]2CC[C@](O)(CC)[C@H](C)O2)C[C@@H]1C", "note": "[lasalocid, reference compound]", "values": [{"measurement": "effect on starch fermentation", "setting": "rumen microflora; 25 ppm", "value": "neither monensin or lasalocid had any effect"}]}
{"molecule": "Pyridine, 2,2'-(2-imidazolidinyl- idene)di-, compound with CuCl2 (1/1) [Formula II Compound]", "values": [{"measurement": "activity in chick rye diet test", "setting": "[3]", "value": "promising activity"}, {"measurement": "acetate production", "setting": "[2]; 75 ppm", "value": "depressed acetate production compared to the negative control, and was comparable to monensin"}, {"measurement": "CH4 (%), Average", "setting": "[2]; 75 ppm, average", "value": 11.0, "unit": "%"}, {"measurement": "H2 (%), Average", "setting": "[2]; 75 ppm, average", "value": 0.0, "unit": "%"}, {"measurement": "CH4, Percent Change", "setting": "[2]; 75 ppm, change versus control average, 1440 min", "value": -6.0, "unit": "%"}, {"measurement": "Acetate, Mean", "setting": "[2]; 75 ppm, mean of duplicate", "value": 8.0, "unit": "Mu Moles/ml"}, {"measurement": "Butyrate, Mean", "setting": "[2]; 75 ppm, mean of duplicate", "value": 9.6, "unit": "Mu Moles/ml"}, {"measurement": "Propionic, Mean", "setting": "[2]; 75 ppm, mean of duplicate", "value": 14.8, "unit": "Mu Moles/ml"}, {"measurement": "Total, Mean", "setting": "[2]; 75 ppm, mean of duplicate", "value": 32.4, "unit": "Mu Moles/ml"}, {"measurement": "CH4 (%)", "setting": "[2]; 75 ppm, single runs", "value": "11.2% and 10.8%"}, {"measurement": "H2 (%)", "setting": "[2]; 75 ppm, single runs", "value": 0.0, "unit": "%"}, {"measurement": "Acetate", "setting": "[2]; [4]", "value": "6.8 Mu Moles/ml and 9.2 Mu Moles/ml"}, {"measurement": "Butyrate", "setting": "[2]; [4]", "value": "8.9 Mu Moles/ml and 10.2 Mu Moles/ml"}, {"measurement": "Propionic", "setting": "[2]; [4]", "value": "14.6 Mu Moles/ml and 15.0 Mu Moles/ml"}, {"measurement": "Total", "setting": "[2]; [4]", "value": "38.4 Mu Moles/ml and 34.4 Mu Moles/ml"}, {"measurement": "activity in rumen fluid batch culture tests", "setting": "[2]; compared with iron and nickel salts of Formula I", "value": "best activity"}, {"measurement": "propionate production", "setting": "[2]; expected in tests to establish optimum dosage level", "value": "favorable shift to increased propionate production"}]}
